Among the test systems are OVCAR-4 ovarian; SK-MEL-2 melanoma; NCI-H522 lung; SNB-75 CNS; OVCAR-3 ovarian; SR leukemia; MOLT-4 leukemia; HT29 colon; OVCAR-5 ovarian.
Common to all, as to test: NCI-60 cell line screen, 48 h

Values joined by “and” are separate entries in the source; they are usually repeats but may differ in a detail not shown here. Equal entries are not always repeated.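 Each compound was tested at five concentrations against cells in 96-well plates for 48 hours. GI50 = concentration required for 50% inhibition of growth. At the TGI there is no net growth.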 Bounds are passed on as bounds.

On to `CN(C)C(=S)/N=c1\ss/c(=N\S(=O)(=O)c2ccccc2)n1N(C)C`, for which the TGI is greater than 100 µM in the assay with OVCAR-4 ovarian; greater than 100 µM in the assay with SK-MEL-2 melanoma; 37.8 µM with NCI-H522 lung; greater than 100 µM in the assay on SNB-75 CNS; greater than 100 µM with OVCAR-3 ovarian; greater than 100 µM with SR leukemia. The molecule further showed a TGI in the assay with MOLT-4 leukemia greater than 100 µM.

With `COC1OC2COC(c3ccccc3)OC2C(O)C1Br` (stereo not drawn), the TGI in the assay with OVCAR-4 ovarian, in the assay on NCI-H522 lung, in the assay with HT29 colon, in the assay with OVCAR-3 ovarian, with SR leukemia and with MOLT-4 leukemia was greater than 100 µM in each case. The same molecule gave a TGI in the assay with OVCAR-5 ovarian greater than 100 µM.

Turning to `COc1ccc2nc(NC(=O)C(=O)C(C#N)c3ccc(Cl)c(Cl)c3)sc2c1` (stereo not drawn), the TGI in the assay with OVCAR-4 ovarian, in the assay with SK-MEL-2 melanoma, in the assay with NCI-H522 lung, in the assay on SNB-75 CNS, in the assay with HT29 colon and with OVCAR-3 ovarian was greater than 100 µM each time. Moreover, the TGI in the assay on OVCAR-5 ovarian is greater than 100 µM.

For `O=C(O)CCSC(=O)Nc1ccc(N=Nc2ccccc2)cc1`, the TGI in the assay on OVCAR-4 ovarian, in the assay with SNB-75 CNS, with HT29 colon, in the assay with OVCAR-3 ovarian, in the assay on SR leukemia and in the assay with MOLT-4 leukemia was greater than 100 µM throughout. The molecule also displayed a TGI in the assay on OVCAR-5 ovarian greater than 100 µM.

With `CC12Oc3ccc4ccccc4c3CC1Cc1c(ccc3ccccc13)O2` (stereo not drawn), the TGI in the assay on OVCAR-4 ovarian was 90.6 µM; in the assay with SK-MEL-2 melanoma, greater than 100 µM; in the assay on NCI-H522 lung, greater than 100 µM; in the assay on SNB-75 CNS, 41.3 µM; in the assay on HT29 colon it was greater than 100 µM; in the assay with OVCAR-5 ovarian it was greater than 100 µM.

As to `Cc1cccc(C(C)(C)C)c1NC(=O)CC1Sc2ccccc2NC1=O` (stereo not drawn), the TGI in the assay with OVCAR-4 ovarian, in the assay with NCI-H522 lung, with SNB-75 CNS, in the assay on HT29 colon, in the assay with OVCAR-3 ovarian and in the assay with MOLT-4 leukemia was greater than 100 µM throughout. The TGI in the assay with OVCAR-5 ovarian was greater than 100 µM.

As to `Nc1n[nH]c(CCc2nc(N)n[nH]2)n1`, the TGI in the assay on OVCAR-4 ovarian, in the assay with SK-MEL-2 melanoma, in the assay on NCI-H522 lung, in the assay on SNB-75 CNS, in the assay on HT29 colon and in the assay with OVCAR-3 ovarian was greater than 100 µM throughout. For the same molecule, the TGI in the assay on MOLT-4 leukemia and in the assay with OVCAR-5 ovarian was greater than 100 µM throughout.

For `O=C1C=CC(CC(=O)c2ccc3ccccc3c2)O1` (stereo not drawn), the TGI with OVCAR-4 ovarian turned out to be 63.7 µM; with SK-MEL-2 melanoma, 47.5 µM; in the assay on SNB-75 CNS, 91.2 µM; in the assay with HT29 colon it was 33.1 µM; with OVCAR-3 ovarian it was 41.6 µM; in the assay on SR leukemia it was 83.1 µM. For the same molecule, the TGI is 65.6 µM with MOLT-4 leukemia and 41.5 µM in the assay on OVCAR-5 ovarian.

For `Nn1c(N=Nc2c(O)[nH]c3c(Cl)cc(Cl)cc23)n[nH]c1=S`, the TGI in the assay on OVCAR-4 ovarian, with SK-MEL-2 melanoma, with NCI-H522 lung, in the assay with HT29 colon, in the assay with OVCAR-3 ovarian and in the assay on SR leukemia was greater than 100 µM in each case. Besides, the TGI in the assay on MOLT-4 leukemia and in the assay on OVCAR-5 ovarian was greater than 100 µM in each case.

For `CC1=CC(=O)N(c2c(C)cccc2Cl)C(C)N1` (stereo not drawn), the TGI in the assay on OVCAR-4 ovarian, with SK-MEL-2 melanoma, in the assay on NCI-H522 lung, with SNB-75 CNS, in the assay with HT29 colon and in the assay on OVCAR-3 ovarian was greater than 100 µM throughout. Also, the TGI in the assay with MOLT-4 leukemia and with OVCAR-5 ovarian was greater than 100 µM throughout.

For `O=C(O)C1=C(C(=O)Nc2ccc(NC(=O)C3=C(C(=O)O)C4C=CC3C4)cc2)C2C=CC1C2`, the TGI in the assay with OVCAR-4 ovarian, in the assay with SK-MEL-2 melanoma, with SNB-75 CNS, with HT29 colon, in the assay on OVCAR-3 ovarian and in the assay with SR leukemia was greater than 100 µM in each case. The TGI with MOLT-4 leukemia and in the assay on OVCAR-5 ovarian was greater than 100 µM each time.

Turning to `O=C(O)c1ccccc1NC(=O)C1CCCCC1`, the TGI in the assay on OVCAR-4 ovarian, with SK-MEL-2 melanoma, with SNB-75 CNS, in the assay on HT29 colon, with OVCAR-3 ovarian and with MOLT-4 leukemia was greater than 100 µM in each case. The TGI with OVCAR-5 ovarian is greater than 100 µM.

`O=C1C2Nc3ccccc3SC2C(=O)N1c1ccccc1C(F)(F)F` (stereo not drawn): the TGI in the assay with OVCAR-4 ovarian is greater than 100 µM; with SK-MEL-2 melanoma, greater than 100 µM; with NCI-H522 lung it was 56.3 µM; in the assay on HT29 colon, greater than 100 µM; in the assay with OVCAR-3 ovarian it was 60.6 µM; in the assay with SR leukemia, greater than 100 µM. Besides, the TGI in the assay on MOLT-4 leukemia and in the assay on OVCAR-5 ovarian was greater than 100 µM throughout.

Consider `N#CC1=C(Cl)NC(Cl)=C(C#N)C1c1c(Cl)cccc1Cl`, for which the TGI in the assay on SK-MEL-2 melanoma was greater than 100 µM; in the assay with NCI-H522 lung, 38.1 µM; in the assay on SNB-75 CNS it was greater than 100 µM; with HT29 colon, greater than 100 µM; in the assay with OVCAR-3 ovarian it was 64.4 µM; in the assay on SR leukemia it was greater than 100 µM. For the same molecule, the TGI with MOLT-4 leukemia and in the assay on OVCAR-5 ovarian was greater than 100 µM throughout.

Turning to `c1ccc2c(c1)C1=NCCN1c1ccccc1-2`, the TGI is 10.2 µM in the assay on OVCAR-4 ovarian; 8.05 µM with SK-MEL-2 melanoma; 3.13 µM in the assay on NCI-H522 lung; 14.4 µM with SNB-75 CNS; 7.85 µM in the assay with HT29 colon; 6.82 µM in the assay with OVCAR-3 ovarian. The TGI came to 2.41 µM in the assay with SR leukemia, 8.99 µM with MOLT-4 leukemia and 15.2 µM in the assay with OVCAR-5 ovarian.

`O=C(Nc1ccn(CCI)c(=O)n1)c1ccccc1`: the TGI with OVCAR-4 ovarian, with SK-MEL-2 melanoma, in the assay with NCI-H522 lung, with SNB-75 CNS, in the assay with HT29 colon and with OVCAR-3 ovarian was greater than 100 µM each time. In addition, the TGI in the assay on SR leukemia and with OVCAR-5 ovarian was greater than 100 µM in each case.

In the case of `Cc1ccccc1-n1c(C)nc(-c2ccccc2)cc1=O`, the TGI in the assay on OVCAR-4 ovarian, with SK-MEL-2 melanoma, in the assay on NCI-H522 lung, in the assay on SNB-75 CNS, with HT29 colon and in the assay on OVCAR-3 ovarian was greater than 100 µM each time. In addition, the TGI in the assay on MOLT-4 leukemia and with OVCAR-5 ovarian was greater than 100 µM in each case.

`O=C1c2nc3n(c2C(=O)c2c1nc1n2CCC1)CCC3`: the GI50 in the assay with OVCAR-4 ovarian was 5.45 µM; with SK-MEL-2 melanoma it was 4.39 µM; with HT29 colon, 5.14 µM; in the assay with OVCAR-3 ovarian it was 3.42 µM; in the assay on SR leukemia, 3.58 µM. Further, the TGI in the assay on OVCAR-4 ovarian is 14.9 µM; in the assay on SK-MEL-2 melanoma, 13.5 µM; in the assay with NCI-H522 lung, 19.5 µM; with SNB-75 CNS, 28.9 µM; in the assay on HT29 colon, 10.8 µM; in the assay with OVCAR-3 ovarian it was 9.74 µM and 7.87 µM. Also, the TGI in the assay on SR leukemia was greater than 40.6 µM; in the assay on MOLT-4 leukemia, greater than 67.6 µM; with OVCAR-5 ovarian, 30.7 µM.

With `O=C(NO)c1ccc(O)c(O)c1`, the TGI in the assay on OVCAR-4 ovarian, in the assay on NCI-H522 lung, in the assay with SNB-75 CNS, in the assay on HT29 colon, in the assay with OVCAR-3 ovarian and with SR leukemia was greater than 100 µM in each case. The TGI with MOLT-4 leukemia and with OVCAR-5 ovarian was greater than 100 µM each time.

Consider `CCCCCCC(/C=N/O)C(C)(O)CCC` (stereo not drawn), for which the TGI in the assay on OVCAR-4 ovarian, in the assay on SK-MEL-2 melanoma, with NCI-H522 lung, with SNB-75 CNS, with HT29 colon and in the assay with OVCAR-3 ovarian was greater than 100 µM throughout. Also, the TGI with MOLT-4 leukemia and in the assay with OVCAR-5 ovarian was greater than 100 µM in each case.

As to `Cc1cccc2nc3cccc(C(=O)NCCN(C)C)c3nc12`, the TGI in the assay with OVCAR-4 ovarian was 4.84 µM; in the assay with SK-MEL-2 melanoma, 2.96 µM; with SNB-75 CNS, 3.04 µM; in the assay with HT29 colon, 5.44 µM; in the assay with OVCAR-3 ovarian it was 6.45 µM; in the assay on MOLT-4 leukemia, greater than 100 µM. The same molecule registered a TGI with OVCAR-5 ovarian of 5.97 µM.

In the case of `COC(=O)CCC(=O)NC1C2CC3CC(C2)CC1C3` (stereo not drawn), the TGI with OVCAR-4 ovarian is greater than 100 µM; with SK-MEL-2 melanoma, greater than 100 µM; with NCI-H522 lung, greater than 100 µM; with SNB-75 CNS it was greater than 95.4 µM; in the assay with HT29 colon it was greater than 100 µM; in the assay with OVCAR-3 ovarian it was greater than 100 µM. The TGI with MOLT-4 leukemia and in the assay on OVCAR-5 ovarian was greater than 100 µM in each case.

Turning to `O=[N+]([O-])c1ccc(Cl)cc1C1SCc2nc3ccccc3n21` (stereo not drawn), the TGI in the assay on OVCAR-4 ovarian is greater than 100 µM; in the assay on SK-MEL-2 melanoma, greater than 100 µM; with NCI-H522 lung, 80.1 µM; in the assay on SNB-75 CNS, 70.7 µM; with HT29 colon, greater than 100 µM; with OVCAR-3 ovarian it was greater than 100 µM. Besides, the TGI with MOLT-4 leukemia is greater than 100 µM.

Turning to `O=C(/C=C1/Nc2ccc([N+](=O)[O-])cc2NC1O)c1cccc([N+](=O)[O-])c1` (stereo not drawn), the TGI was 11.1 µM in the assay with OVCAR-4 ovarian; greater than 100 µM in the assay on NCI-H522 lung; greater than 100 µM in the assay on SNB-75 CNS; greater than 100 µM in the assay on HT29 colon; greater than 100 µM in the assay with OVCAR-3 ovarian; greater than 100 µM with SR leukemia. The molecule also displayed a TGI in the assay with MOLT-4 leukemia greater than 100 µM.

Regarding `CN1CC(=O)N(C)c2nc[nH]c2C1=O`, the TGI in the assay on OVCAR-4 ovarian, with SNB-75 CNS, with HT29 colon, in the assay with OVCAR-3 ovarian, in the assay with SR leukemia and with MOLT-4 leukemia was greater than 100 µM in each case. In the assay on OVCAR-5 ovarian, the TGI is greater than 100 µM.

`O=C1NC(=O)C2C1N(Cc1ccccc1)C(=O)N2Cc1ccccc1` (stereo not drawn): the TGI with OVCAR-4 ovarian, in the assay with NCI-H522 lung, in the assay with SNB-75 CNS, in the assay on HT29 colon, in the assay with OVCAR-3 ovarian and in the assay with SR leukemia was greater than 100 µM in each case. The TGI in the assay on MOLT-4 leukemia and with OVCAR-5 ovarian was greater than 100 µM throughout.

The values are drawn from PubChem BioAssay (NCI).
